In brackets after ≈: the same amount, converted by molar mass. Where two headings read alike, the source gives them in different places.
Key:
[1] = system: S. aureus ATCC 13709; assay: MIC, S. aureus ATCC 13709; assay type: cell-based; settings: for MIC: Staphylococcus aureus
[2] = system: E. coli ATCC 25922; assay: MIC, E. coli ATCC 25922; assay type: cell-based; settings: for MIC: Escherichia coli
[3] = ATCC13709, S. aureus, Alamar Blue read after overnight incubation at 35° C., read-out: MIC Sa
[4] = ATCC25922, E. coli, Alamar Blue read after overnight incubation at 35° C., read-out: MIC Ec
[5] = ATCC13709, Table 16, new R4 substituents, read-out: SA MIC
[6] = ATCC25922, Table 16, new R4 substituents, EC8 not defined, read-out: EC8 MIC
[7] = S. aureus, Alamar Blue read after overnight incubation at 35° C.
[8] = E. coli, Alamar Blue read after overnight incubation at 35° C.

Row | SMILES | MIC [1, 3] | MIC [2, 4] | MIC Sa [1, 7] | MIC Ec [2, 8] | other results
1 | CNc1cccc2c1[nH]c1nc(Oc3cncnc3)cc(N3CC[C@@H](N)C3)c12 [Compound 3.4] | 0.5 µg/mL (≈ 1.33 µM) | ≤ 0.5 µg/mL |  |  | 
2 | CNc1cc(F)cc2c1[nH]c1nc(Oc3cnc(C)nc3)nc(N3CCC(C)(N)C3)c12 (stereo not shown) |  |  |  |  | MIC [1, 5]: ≤ 0.5 µg/mL; MIC [2, 6]: ≤ 0.5 µg/mL
3 | CNc1cccc2c1[nH]c1nc(Oc3cnc(C)nc3)cc(N3CC4C(C3)C4NCC3CC3)c12 (stereo not shown) [Compound 3.14] | ≤ 0.5 µg/mL | 2 µg/mL (≈ 4.39 µM) |  |  | 
4 | CNc1cccc2c1[nH]c1nc(Oc3cncc(C#N)c3)cc(N3CCN(CCN4CCOCC4)CC3)c12 [Compound 3.59] | 4 µg/mL (≈ 7.8 µM) | > 64 µg/mL |  |  | 
5 | CNc1cccc2c1[nH]c1nc(Oc3cncnc3)cc(N3CC(N)C(O)C3)c12 (stereo not shown) [Compound 3.8] | 16 µg/mL (≈ 40.9 µM) | > 64 µg/mL |  |  | 
6 | CNc1cc(F)cc2c1[nH]c1nc(Oc3cnc(C)nc3)nc(N3CC[C@@H](CN)C3)c12 |  |  |  |  | MIC [1, 5]: ≤ 0.5 µg/mL; MIC [2, 6]: ≤ 0.5 µg/mL
7 | CNc1cc(F)c2c3c1[nH]c1nc(Oc4cnc(C)nc4)nc(c13)NC(=N)NC2 |  |  |  |  | SA MIC ([1]; Table 12, Z is C and connected to R4): 4 µg/mL; EC8 MIC ([2]; Table 12, Z is C and connected to R4, EC8 not defined): 8 µg/mL
8 | CNc1cc(F)cc2c1[nH]c1nc(Oc3cnc(C(C)O)nc3)nc(N3C[C@H]4C[C@@H]3[C@H](C)[C@H]4N)c12 (stereo partly shown) [Compound 10.78] |  |  |  |  | MIC Sa ([1]; Table 18, Sa): 1 µg/mL (≈ 2.09 µM); MIC Ec ([2]; Table 18, Ec): 4 µg/mL (≈ 8.36 µM)
9 | CNc1cccc2c1[nH]c1nc(Oc3cncc(C#N)c3)cc(N3CC(N)C4(CC4)C3)c12 (stereo not shown) [Compound 3.43] | ≤ 0.5 µg/mL | 1 µg/mL (≈ 2.35 µM) |  |  | 
10 | CNc1cccc2c1[nH]c1nc(Oc3cncnc3)cc(N3C[C@@H](NC)C4(CC4)C3)c12 [Compound 3.46] | 2 µg/mL (≈ 4.81 µM) | 4 µg/mL (≈ 9.63 µM) |  |  | 
11 | CNc1cccc2c1[nH]c1nc(Sc3cnc4cccnc4c3)nc(N3CCCCC(N)C3)c12 (stereo not shown) [Compound 1.45] | 1 µg/mL (≈ 2.12 µM) | 4 µg/mL (≈ 8.5 µM) |  |  | 
12 | CNc1cccc2c1[nH]c1nc(Oc3cncc(C(N)=O)c3)cc(N3CC4C(N)C4C3)c12 (stereo not shown) [Compound 3.19] | 8 µg/mL (≈ 18.6 µM) | 32 µg/mL (≈ 74.5 µM) |  |  | 
13 | CNc1cc(F)cc2c1[nH]c1nc(Oc3cnc(C)nc3)nc(N3CCC(N)(CN)C3)c12 (stereo not shown) |  |  |  |  | MIC [1, 5]: ≤ 0.5 µg/mL; MIC [2, 6]: 16 µg/mL (≈ 36.6 µM)
14 | CNc1cccc2c1[nH]c1nc(Sc3cnc4cccnc4c3)nc(N3CCC4(CC4N)C3)c12 (stereo not shown) [Compound 1.25] | ≤ 0.5 µg/mL |  |  | 4 µg/mL (≈ 8.54 µM) | 
15 | CNc1cc(F)cc2c1[nH]c1nc(Cc3cnc(C)nc3)nc(N3CC[C@@]4(C[C@@H]4N)C3)c12 |  |  |  |  | SA MIC ([1]; Table 11, compounds wherein L = CH2): 1 µg/mL; EC8 MIC ([2]; Table 11, L = CH2, EC8 not defined): 8 µg/mL
16 | CNc1cc(F)c(Cl)c2c1[nH]c1nc(Oc3cnc(C)nc3)nc(N3CC4(CC[C@H]4N)C3)c12 [Compound 10.66] |  |  |  |  | MIC Sa ([1]; Table 18, Sa): ≤ 0.5 µg/mL; MIC Ec ([2]; Table 18, Ec): ≤ 0.5 µg/mL

Continued, in another order:

Row | MIC [1, 3] | MIC [2, 4] | MIC Sa [1, 7] | MIC Ec [2, 8] | SMILES | other results
17 |  |  | ≤0.5 µg/mL | ≤0.5 µg/mL | CNc1cc(F)cc2c1[nH]c1nc(Oc3cnc(C#N)c(C)c3)nc(N3CC(N)C4(CC4)C3)c12 (stereo not shown) [Compound 4.324] | 
18 | ≤ 0.5 µg/mL | ≤ 0.5 µg/mL |  |  | CNc1cc(F)cc2c1[nH]c1nc(Oc3cnc(C#N)c(C)c3)nc(N3CC4CC3C[C@@H]4N)c12 (stereo partly shown) [Compound 4.435] | 
19 |  |  | ≤0.5 µg/mL | 1 µg/mL (≈ 2.29 µM) | CNc1cc(F)cc2c1[nH]c1nc(Oc3cnc(C)nc3)nc(N3CC(C)C(CN)C3)c12 (stereo not shown) [Compound 4.087] | 
20 |  |  | 4 µg/mL (≈ 7.32 µM) | 16 µg/mL (≈ 29.3 µM) | CNc1cc(F)cc2c1[nH]c1nc(Oc3cnc(CC(=O)N4CC[C@H](N)C4)nc3)nc(N3C[C@H](N)C4(CC4)C3)c12 [Compound 4.372] | 
21 | 8 µg/mL (≈ 15.7 µM) | > 16 µg/mL |  |  | CNc1cc(F)cc2c1[nH]c1nc(Oc3cnc(C)nc3)nc(N3CC(N)C(C(=O)NCC(C)O)C3)c12 (stereo not shown) [Compound 4.439] | 
22 |  |  | ≤0.5 µg/mL | 1 µg/mL (≈ 2.05 µM) | CNc1cc(F)cc2c1[nH]c1nc(Oc3ccc4oc(C)nc4c3)nc(N3CC4CCC(N)C4C3)c12 (stereo not shown) [Compound 4.336] | 
23 |  |  | ≤0.5 µg/mL | ≤0.5 µg/mL | CNc1cc(F)cc2c1[nH]c1nc(Oc3cnc4ccoc4c3)nc(N3CC4CC(N)C4C3)c12 (stereo not shown) [Compound 4.290] | 
24 |  |  | ≤0.5 µg/mL | 1 µg/mL (≈ 2.18 µM) | CNc1cc(F)cc2c1[nH]c1nc(Oc3cnc(C#N)c(C)c3)nc(N3CC4CC(N)C4C3)c12 (stereo not shown) [Compound 4.323] | 
25 |  |  | ≤0.5 µg/mL | ≤0.5 µg/mL | CNc1cc(F)cc2c1[nH]c1nc(Oc3cnc(C)nc3)nc(N3CCNCC3)c12 [Compound 4.163] | 
26 |  |  | 4 µg/mL (≈ 8.24 µM) | >16 µg/mL | CNc1cc(F)cc2c1[nH]c1nc(Oc3ccc4c(N)nc(C)nc4c3)nc(N3CC4C(N)C4C3)c12 (stereo not shown) [Compound 4.288] | 
27 | ≤ 0.5 µg/mL | 2 µg/mL (≈ 4.8 µM) |  |  | CNc1cc(F)cc2c1[nH]c1nc(Oc3cnc(C)nc3)nc(-c3cncc(N)c3)c12 [Compound 4.450] | 
28 |  |  | ≤0.5 µg/mL | 2 µg/mL (≈ 4.73 µM) | CNc1cc(F)cc2c1[nH]c1nc(Oc3cncnc3)nc(N3CCCC(C)(N)C3)c12 (stereo not shown) [Compound 4.024] | 
29 |  |  | ≤0.5 µg/mL | ≤0.5 µg/mL | CNc1cc(F)cc2c1[nH]c1nc(Oc3ccc(C#N)nc3)nc(N3CC4CCNC4C3)c12 (stereo not shown) [Compound 4.330] | 
